Test results from the supplement of paper PMC10307832.

Legend:
Experiment in all cases: relative viability (nuclei count vs DMSO), 5 days (fraction); higher = more cells survive
[1] = compound: COc1cc2nccc(Oc3ccc(NC(=O)C4(C(=O)Nc5ccc(F)cc5)CC4)cc3)c2cc1OC [Cabozantinib] + C[C@@H](Oc1cc(-c2cnn(C3CCNCC3)c2)cnc1N)c1c(Cl)ccc(F)c1Cl [Crizotinib] (partner 1 µM)
Procedure, shortened: (§1)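 After 5 days of treatment, lung cancer cells in 1536-well plates were fixed and stained in a single step (final 0.05% Triton X-100, 1% formaldehyde, 1 ug/ml Hoechst) and their nuclei counted on 4× images. Treatment had been applied by pin tool the day after seeding as one drug alone or as a fixed anchor-drug dose with five library-drug doses (not always all listed) in √10 steps. Relative viability is the nuclei count of treated wells divided by that of vehicle wells, and values are medians of duplicate plates.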

Kobe2602 + Phenformin = compound: C1=CC(=CC=C1NC(=S)NNC2=C(C=C(C=C2[N+](=O)[O-])C(F)(F)F)[N+](=O)[O-])F [Kobe2602] + N=C(N)NC(=N)NCCc1ccccc1 [Phenformin] (partner 250 µM)
Procedure, shortened: as §1

Zosuquidar + Tozasertib = compound: O[C@@H](COc1cccc2ncccc12)CN1CCN([C@@H]2c3ccccc3[C@@H]3[C@H](c4ccccc42)C3(F)F)CC1 [Zosuquidar] + Cc1cc(Nc2cc(N3CCN(C)CC3)nc(Sc3ccc(NC(=O)C4CC4)cc3)n2)n[nH]1 [Tozasertib] (partner 0.1 µM)
Procedure, shortened: as §1

[2] = compound: COc1cc2nccc(Oc3ccc(NC(=O)C4(C(=O)Nc5ccc(F)cc5)CC4)cc3)c2cc1OC [Cabozantinib] + N=C(N)NC(=N)NCCc1ccccc1 [Phenformin] (partner 250 µM)
Procedure, shortened: as §1

Cell Line | relative viability ([1]; first compound 0.02 µM) | relative viability ([1]; first compound 0.06325 µM) | relative viability ([1]; first compound 0.2 µM) | relative viability ([1]; first compound 0.6325 µM) | relative viability ([1]; first compound 2 µM) | relative viability (Kobe2602 + Phenformin; first compound 0.2 µM) | relative viability (Kobe2602 + Phenformin; first compound 0.6325 µM) | relative viability (Kobe2602 + Phenformin; first compound 2 µM) | relative viability (Kobe2602 + Phenformin; first compound 6.325 µM) | relative viability (Kobe2602 + Phenformin; first compound 20 µM) | relative viability (Zosuquidar + Tozasertib; first compound 0.01 µM) | relative viability (Zosuquidar + Tozasertib; first compound 0.03162 µM) | relative viability (Zosuquidar + Tozasertib; first compound 0.1 µM) | relative viability (Zosuquidar + Tozasertib; first compound 0.3162 µM) | relative viability (Zosuquidar + Tozasertib; first compound 1 µM) | relative viability ([2]; first compound 0.02 µM) | relative viability ([2]; first compound 0.06325 µM) | relative viability ([2]; first compound 0.2 µM) | relative viability ([2]; first compound 0.6325 µM) | relative viability ([2]; first compound 2 µM)
NCI-H2170 | 1.33 | 1.4 | 1.27 | 1.15 | 1.19 | 0.414 | 0.475 | 0.423 | 0.406 | 0.403 | 0.788 | 0.733 | 0.825 | 0.622 | 0.738 | 0.468 | 0.418 | 0.425 | 0.365 | 0.353
NCI-H322M | 1.02 | 1.04 |  | 0.945 | 0.861 | 0.798 | 0.857 | 0.808 | 0.826 | 0.771 | 0.461 | 0.54 | 0.383 | 0.445 | 0.519 | 0.779 | 0.922 | 0.589 | 0.803 | 0.816
LCLC-103H | 1 | 1.09 | 1.09 | 1.02 | 1.04 | 0.359 | 0.381 | 0.32 | 0.343 | 0.351 | 0.388 | 0.462 | 0.445 | 0.462 | 0.496 | 0.296 | 0.354 | 0.27 | 0.371 | 0.306
NCI-H647 | 1.23 | 1.58 | 1.05 | 1.07 | 0.877 | 0.554 | 0.549 | 0.655 | 0.481 | 0.441 | 0.26 | 0.266 | 0.564 | 0.228 | 0.284 | 0.488 | 0.596 | 0.541 | 0.49 | 0.322
LK-2 |  | 0.225 | 0.201 | 0.179 | 0.204 | 0.461 | 0.579 | 0.489 | 0.624 | 0.516 | 0.171 | 0.163 | 0.174 | 0.172 | 0.183 |  | 0.508 |  | 0.396 | 0.607
NCI-H1755 | 0.972 | 0.964 | 0.942 | 0.797 | 0.781 | 0.615 | 0.608 | 0.601 | 0.662 | 0.568 | 0.541 | 0.634 | 0.535 | 0.634 | 0.564 | 0.611 | 0.624 | 0.57 | 0.644 | 0.561
EPLC-272H | 0.893 | 0.946 | 0.783 | 0.835 | 0.771 | 0.313 | 0.32 | 0.31 | 0.323 | 0.294 | 0.192 | 0.245 | 0.358 | 0.261 | 0.253 | 0.269 | 0.331 | 0.24 | 0.357 | 0.291
NCI-H2228 | 0.581 | 0.496 | 0.505 | 0.403 | 0.315 | 0.35 | 0.449 | 0.359 | 0.295 | 0.361 | 0.213 | 0.272 | 0.252 | 0.208 | 0.272 | 0.392 | 0.359 | 0.298 | 0.471 | 0.35
